Assay: xn = mol fraction of the nth substance listed

CCC(C)(O)CC + CO
298.15 K, 101.33 kPa
Conditions | viscosity [mPa·s]
x2 = 0.1032 | 3.799
x2 = 0.2156 | 3.553
x2 = 0.3158 | 3.317
x2 = 0.4019 | 3.048
x2 = 0.5004 | 2.6
x2 = 0.6084 | 2.079
x2 = 0.7088 | 1.568
x2 = 0.8021 | 1.16
x2 = 0.9011 | 0.8027

[Br-].[Li+] + CO
101 kPa
Conditions | viscosity [mPa·s]
293.15 K, x2 = 0.7334 | 86.34
293.15 K, x2 = 0.7699 | 40.18
293.15 K, x2 = 0.804 | 20.18
293.15 K, x2 = 0.8367 | 10.43
293.15 K, x2 = 0.8645 | 6.343
293.15 K, x2 = 0.8908 | 4.223
303.15 K, x2 = 0.6926 | 102.1
303.15 K, x2 = 0.7326 | 55.05
303.15 K, x2 = 0.7698 | 28.35
303.15 K, x2 = 0.8039 | 15.05
303.15 K, x2 = 0.836 | 8.725
303.15 K, x2 = 0.8642 | 5.422
303.15 K, x2 = 0.8908 | 3.697
313.15 K, x2 = 0.6913 | 65.32
313.15 K, x2 = 0.7324 | 35.2
313.15 K, x2 = 0.7697 | 19.67
313.15 K, x2 = 0.8039 | 11.37
313.15 K, x2 = 0.836 | 7.147
313.15 K, x2 = 0.8644 | 4.634
313.15 K, x2 = 0.8908 | 3.566
323.15 K, x2 = 0.691 | 42.31
323.15 K, x2 = 0.7323 | 24.55
323.15 K, x2 = 0.7696 | 14.41
323.15 K, x2 = 0.8039 | 9.136
323.15 K, x2 = 0.836 | 5.438
323.15 K, x2 = 0.8644 | 3.976

ClC(Cl)(Cl)Cl + COC(=O)OC
viscosity [mPa·s], 101.33 kPa
Conditions | x2 = 0.0994 | x2 = 0.201 | x2 = 0.3063 | x2 = 0.4005 | x2 = 0.5036 | x2 = 0.5982 | x2 = 0.7031 | x2 = 0.833 | x2 = 0.8997
298.15 K | 0.77 | 0.724 | 0.689 | 0.656 | 0.631 | 0.608 | 0.585 | 0.557 | 0.543
303.15 K | 0.719 | 0.68 | 0.646 | 0.614 | 0.588 | 0.572 | 0.548 | 0.52 | 0.511
308.15 K | 0.676 | 0.633 | 0.604 | 0.575 | 0.551 | 0.536 | 0.516 | 0.493 | 0.481

ClC(Cl)(Cl)Cl + COC(C)=O
303.15 K, 101.3 kPa
Conditions | viscosity [mPa·s]
x2 = 0.1004 | 0.763
x2 = 0.1926 | 0.7035
x2 = 0.2864 | 0.6472
x2 = 0.4018 | 0.587
x2 = 0.5025 | 0.5405
x2 = 0.6004 | 0.5006
x2 = 0.7001 | 0.4608
x2 = 0.8964 | 0.3807

ClC(Cl)(Cl)Cl + COCCO
viscosity [mPa·s], 100 kPa
Conditions | x1 = 0.0831 | x1 = 0.1694 | x1 = 0.2591 | x1 = 0.3523 | x1 = 0.4494 | x1 = 0.5504 | x1 = 0.6557 | x1 = 0.7655 | x1 = 0.8802
298.15 K | 1.569 | 1.49 | 1.412 | 1.335 | 1.26 | 1.186 | 1.114 | 1.043 | 0.9736
303.15 K | 1.392 | 1.328 | 1.265 | 1.202 | 1.171 | 1.079 | 1.019 | 0.9601 | 0.902
308.15 K | 1.24 | 1.188 | 1.137 | 1.111 | 1.036 | 0.9853 | 0.9601 | 0.8863 | 0.8376
313.15 K | 1.108 | 1.067 | 1.025 | 0.9841 | 0.9429 | 0.9015 | 0.8608 | 0.8201 | 0.7796

— the CheMixHub viscosity set
